Measured values from paper PMC12560751 (RSC Advances, 2025).

Assays:
AChE [1] = target: T1, AChE (Homo sapiens, UniProt P22303); assay: Kinetic studies of AChE enzyme inhibition; assay type: biochemical; details: Lineweaver-Burk plot
hMAO A = target: T2, hMAO A (Homo sapiens, UniProt P21397); assay: MAO A inhibition, fluorometric method; assay type: biochemical
T2 sequence (P21397 1-527): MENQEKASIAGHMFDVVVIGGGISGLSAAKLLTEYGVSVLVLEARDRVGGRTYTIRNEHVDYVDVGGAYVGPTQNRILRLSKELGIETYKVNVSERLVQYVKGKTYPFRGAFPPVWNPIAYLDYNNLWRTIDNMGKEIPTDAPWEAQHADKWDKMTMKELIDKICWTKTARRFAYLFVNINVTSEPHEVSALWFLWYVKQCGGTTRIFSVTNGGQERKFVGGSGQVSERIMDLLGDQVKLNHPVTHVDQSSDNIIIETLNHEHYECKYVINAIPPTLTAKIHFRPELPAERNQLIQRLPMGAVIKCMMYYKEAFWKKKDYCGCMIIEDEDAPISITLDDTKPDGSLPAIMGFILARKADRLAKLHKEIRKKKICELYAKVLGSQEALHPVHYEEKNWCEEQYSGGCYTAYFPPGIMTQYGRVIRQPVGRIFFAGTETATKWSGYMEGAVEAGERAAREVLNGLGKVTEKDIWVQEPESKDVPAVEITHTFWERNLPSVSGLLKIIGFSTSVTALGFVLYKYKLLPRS

recombinant hMAO B = target: T3, recombinant hMAO B (Homo sapiens, UniProt P27338); assay: MAO B inhibition, fluorometric method; assay type: biochemical
T3 sequence (P27338 1-520): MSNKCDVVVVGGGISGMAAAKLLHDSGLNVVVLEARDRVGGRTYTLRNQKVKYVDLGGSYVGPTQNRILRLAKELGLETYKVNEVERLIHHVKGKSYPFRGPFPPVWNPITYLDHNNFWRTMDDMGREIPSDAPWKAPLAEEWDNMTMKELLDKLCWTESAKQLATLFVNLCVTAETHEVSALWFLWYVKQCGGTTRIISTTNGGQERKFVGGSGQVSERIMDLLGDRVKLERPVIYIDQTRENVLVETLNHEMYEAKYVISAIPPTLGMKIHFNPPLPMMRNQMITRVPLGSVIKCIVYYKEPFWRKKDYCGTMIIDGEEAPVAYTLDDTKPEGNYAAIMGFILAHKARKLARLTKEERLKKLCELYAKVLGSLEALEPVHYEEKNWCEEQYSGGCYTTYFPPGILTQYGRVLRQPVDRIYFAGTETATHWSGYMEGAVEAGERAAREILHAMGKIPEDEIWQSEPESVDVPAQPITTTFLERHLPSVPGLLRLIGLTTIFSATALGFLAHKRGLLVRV

NIH/3T3 cell lines = assay: Cytotoxicity, 24-hour MTT assay; assay type: cell-based; details: for IC50: Mus musculus, NIH3T3, 24 h, read-out: IC50 against NIH/3T3
BChE = BChE (Homo sapiens, UniProt P06276); assay: Anticholinesterase activity, modified colorimetric Ellman method; assay type: biochemical
AChE [2] = target: T1, AChE; assay: as above; assay type: biochemical

T1 sequence (P22303 32-614): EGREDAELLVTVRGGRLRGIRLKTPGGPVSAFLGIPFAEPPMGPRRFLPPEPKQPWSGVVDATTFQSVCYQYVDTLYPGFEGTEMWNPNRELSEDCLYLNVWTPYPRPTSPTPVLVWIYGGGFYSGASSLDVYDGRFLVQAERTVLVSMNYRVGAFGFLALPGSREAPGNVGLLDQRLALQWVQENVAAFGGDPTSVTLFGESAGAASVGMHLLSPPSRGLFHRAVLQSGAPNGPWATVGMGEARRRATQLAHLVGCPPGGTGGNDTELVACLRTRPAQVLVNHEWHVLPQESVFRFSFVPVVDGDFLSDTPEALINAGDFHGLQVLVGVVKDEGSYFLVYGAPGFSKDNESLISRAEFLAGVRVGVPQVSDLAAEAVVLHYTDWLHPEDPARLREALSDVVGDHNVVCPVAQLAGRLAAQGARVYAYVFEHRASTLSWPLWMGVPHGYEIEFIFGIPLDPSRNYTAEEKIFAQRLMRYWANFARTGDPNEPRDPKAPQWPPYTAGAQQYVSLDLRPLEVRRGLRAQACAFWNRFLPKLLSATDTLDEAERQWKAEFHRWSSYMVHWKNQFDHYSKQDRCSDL
Sequence of BChE (P06276 29-602, species assumed): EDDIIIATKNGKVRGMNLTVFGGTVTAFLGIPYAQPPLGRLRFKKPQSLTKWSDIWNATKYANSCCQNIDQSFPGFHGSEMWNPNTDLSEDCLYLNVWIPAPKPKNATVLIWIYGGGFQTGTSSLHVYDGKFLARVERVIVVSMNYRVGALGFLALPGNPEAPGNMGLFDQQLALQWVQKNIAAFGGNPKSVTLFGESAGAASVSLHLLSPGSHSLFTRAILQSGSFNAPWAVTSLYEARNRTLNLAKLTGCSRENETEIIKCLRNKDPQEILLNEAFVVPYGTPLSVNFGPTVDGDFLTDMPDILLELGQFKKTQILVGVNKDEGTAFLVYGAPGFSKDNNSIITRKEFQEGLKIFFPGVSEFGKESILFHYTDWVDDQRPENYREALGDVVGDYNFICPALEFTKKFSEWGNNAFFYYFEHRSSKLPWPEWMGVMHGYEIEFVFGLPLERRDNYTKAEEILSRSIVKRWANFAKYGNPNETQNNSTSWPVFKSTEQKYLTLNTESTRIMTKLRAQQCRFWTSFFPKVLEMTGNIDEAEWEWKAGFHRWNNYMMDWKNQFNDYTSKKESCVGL

Compound	type of inhibition (AChE [1])	IC50 (hMAO A)	inhibition at 100 µM (hMAO A; read-out: MAO A % inhibition)	inhibition at 1000 µM (hMAO A; read-out: MAO A % inhibition)	IC50 (recombinant hMAO B; MAO B IC50, tables)	IC50 (recombinant hMAO B; MAO B IC50, text)	inhibition at 100 µM (recombinant hMAO B; read-out: MAO B % inhibition)	inhibition at 1000 µM (recombinant hMAO B; read-out: MAO B % inhibition)	IC50 (NIH/3T3 cell lines)	cytotoxicity (in words) (NIH/3T3 cell lines; NIH/3T3, MTT)	IC50 (BChE)	inhibition at 100 µM (BChE; read-out: BChE % inhibition)	inhibition at 1000 µM (BChE; read-out: BChE % inhibition)	IC50 (AChE [2])	inhibition at 100 µM (AChE [2]; read-out: AChE % inhibition)	inhibition at 1000 µM (AChE [2]; read-out: AChE % inhibition)	Selectivity and indexes (AChE [2]; selective for AChE (over BChE))
COc1ccc(C(=O)C=Cc2ccc(NC(=O)CN3CCN(C(C)=O)CC3)cc2)cc1OC [Compound 4g, 2-(4-Acetylpiperazin-1-yl)-N-(4-(3-(3,4-dimethoxyphenyl)-3-oxoprop-1-en-1-yl)phenyl)acetamide]	reversible and mixed-type inhibitor	> 100 µM	39.4 ± 1.11%	69 ± 2.52%	0.114 ± 0.003 µM	< 1 µM	89.2 ± 2.17%	92.3 ± 2.16%	32.2 µM	not cytotoxic	> 1000 µM	29.9 ± 0.92%	36.4 ± 0.954%	0.027 ± 0.001 µM	96.4 ± 2.5%	98 ± 2.56%	AChE/>1000
COc1cccc2c1C(=O)c1c(O)c3c(c(O)c1C2=O)C[C@@](O)(C(=O)CO)C[C@@H]3O[C@H]1C[C@H](N)[C@H](O)[C@H](C)O1 [Doxorubicin, reference compound]									> 1000 µM								
